The data set can be described thus: gradient 5% acetonitrile 3 min, to 50% in 2 min, to 85% in 15 min, held 3 min, 100 µL/min. The settings on record: column: Zorbax Extend-C18 2.1 x 50 mm; eluents: water / acetonitrile, 0.1% formic acid. Summed up: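 Over 3 months, pure standards in mixtures of ~100 molecules were run by HPLC coupled to a quadrupole time-of-flight mass spectrometer in positive and negative ionization mode. The column was a Zorbax Extend-C18 (2.1 × 50 mm, 1.8 μm) at 100 μL/min, eluted with water and acetonitrile each holding 0.1% formic acid, with 40 μL dead and 900 μL dwell volumes. Retention time was determined from adduct peaks chosen by software and checked manually.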
`CC1Oc2ccc(-c3csc(NC(=O)c4cccs4)n3)cc2NC1=O` (stereo unspecified) showed an RP-LC retention time of 839 s.

Compound `COc1ccc(CNc2nc3ccncc3n(C(C)C)c2=O)cc1` registered an RP-LC retention time of 652 s.

`O=C(NCCCN1CCCc2ccccc21)c1nnc(-c2ccc(S(=O)(=O)N3CCCC3)cc2)o1`: the RP-LC retention time was 1020 s.

For the compound `COc1ccc(CN2CC(F)(F)C[C@H]2c2nnc(-c3cnccn3)o2)cc1C`, the RP-LC retention time was 912 s.

The compound `COc1ccccc1NC(=O)Cn1nc2cc(-c3ccccc3)nc(C)n2c1=O` came in with an RP-LC retention time of 944 s.

`Cc1[nH]c(C(=O)N2CCC(CC(=O)NCCC(C)C)CC2)c(C)c1C` returned an RP-LC retention time of 813 s.

`Fc1ccc(CN2CCN(c3cnn4c(C5CC5)nnc4c3)CC2)cc1` registered an RP-LC retention time of 498 s.

`CC(C)C(=O)Nc1cnc(-c2cccc(Cl)c2)nc1` registered an RP-LC retention time of 975 s.

As to `COc1ccccc1-c1nnc(-c2ccc(Cl)c(S(=O)(=O)N3CCOCC3)c2)o1`, the RP-LC retention time was determined as 897 s.

In turn, `CCCCN(Cc1ccco1)c1nc(-c2ccc(OC)cc2)nc2ccccc12` returned an RP-LC retention time of 940 s.

Compound `CCn1c(CCNC(=O)c2ccc(OC)cc2)nc2cccnc21` showed an RP-LC retention time of 607 s.

Consider `COc1cccc(-c2cc3n(n2)CCCN(C(=O)NCc2ccco2)C3)c1`, for which the RP-LC retention time was determined as 850 s.

`CCCCOc1ccc(C(=O)N2CCN(c3cc(C)nc(N4CCCC4)n3)CC2)cc1` showed an RP-LC retention time of 788 s.

For the compound `O=C(CN1C(=O)CCCc2cc(S(=O)(=O)N3CCCCC3)ccc21)NCc1ccc(Cl)cc1`, the RP-LC retention time came out at 926 s.

In turn, `CCNC(=O)c1cc(-c2ccccc2)n[nH]1` registered an RP-LC retention time of 668 s.

Compound `COc1ccc(Cl)cc1NC(=O)Cn1nc(N2CCSCC2)c2ccccc2c1=O` showed an RP-LC retention time of 1080 s.

Regarding `Cn1c(C2CCN(S(C)(=O)=O)CC2)nn(Cc2ccc(Cl)c(Cl)c2)c1=O`, the RP-LC retention time was 739 s.

With `Cc1cc(Br)ccc1NC(=O)C(=O)Nc1ccc2nc3n(c(=O)c2c1)CCCCC3`, the RP-LC retention time came out at 990 s.

Turning to `CNC(=O)N1CCC(CCc2nc(C3CCOCC3)no2)CC1`, the RP-LC retention time was 648 s.

On to `COCCNC(=O)CSc1cc(N2CCN(c3ccc(OC)cc3)CC2)ncn1`, for which the RP-LC retention time stood at 662 s.

Compound `Cc1ccc(-c2ccc(-n3nc(C)c(S(=O)(=O)NCc4ccccc4)c3C)nn2)cc1` displayed an RP-LC retention time of 1090 s.

For the compound `O=C(O)c1nnn(-c2cc(F)cc(F)c2)c1-c1ccccn1`, the RP-LC retention time was 680 s.

As for `COc1cccc(-c2noc(N3CCCCC3)n2)c1`, the RP-LC retention time is 1070 s.

`Cc1ccc(CNC(=O)c2ccc3c(c2)CN(Cc2scnc2C)CCO3)cc1` registered an RP-LC retention time of 648 s.

The compound `CCc1cc(=O)n(CC(=O)NCc2ccc(OC)cc2)c(N)n1` registered an RP-LC retention time of 631 s.

As to `O=C(Cn1c(N2CCCCC2)nc2ccccc2c1=O)NCc1ccc(Cl)cc1`, the RP-LC retention time was found to be 946 s.

`Cn1c(C(=O)NCc2ccc(F)cc2)cc2sccc21` returned an RP-LC retention time of 663 s.

With `Cc1noc(C2CCCCN2Cc2nc(-c3ccccn3)no2)n1` (stereo unspecified), the RP-LC retention time came out at 639 s.

As for `Cc1nc(-c2ccc(-c3noc(CN4C(=O)COc5ccc(Cl)cc54)n3)cc2)cs1`, the RP-LC retention time was found to be 1150 s.

With `CCCN1CCn2cc(C(=O)NCc3cccc(Br)c3)nc2C1`, the RP-LC retention time was determined as 624 s.

In turn, `Cc1ccccc1S(=O)(=O)NC1CCN(c2ccc(=O)n(C)n2)C1` (stereo unspecified) yielded an RP-LC retention time of 705 s.

Compound `CCC(C)Sc1nnc(NC(=O)C2CCN(C(=O)c3ccccc3F)CC2)s1` (stereo unspecified) had an RP-LC retention time of 871 s.

`O=C(O)CN1CCCc2nc(-c3ccccc3)ncc2C1=O` returned an RP-LC retention time of 716 s.

In turn, `CCC(=O)N1CCCC1c1nc2ccccc2n1CC(=O)OC` (stereo unspecified) returned an RP-LC retention time of 592 s.

With `Cn1nnc2ccc(-c3noc(CNC(=O)c4cccs4)n3)cc21`, the RP-LC retention time was determined as 712 s.

Take `CCOc1ccc(-c2cn3ccn(-c4ccc(C(C)C)cc4)c(=O)c3n2)cc1`: the RP-LC retention time was determined as 1030 s.

`CC(C)Cc1csc(-c2csc(S(=O)(=O)NCc3ccccc3F)c2)n1` displayed an RP-LC retention time of 1140 s.

In turn, `CCn1nc(N2CCCC(NS(=O)(=O)c3ccc(F)c(Cl)c3)C2)ccc1=O` (stereo unspecified) showed an RP-LC retention time of 817 s.

In the case of `Cc1cccc(N2CCN(C(=O)CN3C(=O)CN(C)C(=O)c4ccccc43)CC2C)c1` (stereo unspecified), the RP-LC retention time turned out to be 671 s.

`Cc1cc(C)n(-c2ccnc(N3CCC(C(=O)N4CCSCC4)CC3)n2)n1` registered an RP-LC retention time of 854 s.

With `O=C(CSc1ccc(N2CCCC(C(=O)NC3CC3)C2)nn1)Nc1ccc(F)cc1F` (stereo unspecified), the RP-LC retention time stood at 617 s.

For `CCN1CCn2cc(S(=O)(=O)Nc3ccc(OC)cc3)cc2C1=O`, the RP-LC retention time was found to be 684 s.

Compound `COCCCNC(=O)C1CCN(c2ccc(Sc3cccc(F)c3)nn2)CC1` showed an RP-LC retention time of 675 s.

Compound `Cc1ccc(C)c(-c2cc(C(=O)N3CCN(C)CC3)[nH]n2)c1` returned an RP-LC retention time of 621 s.

`CCc1ccccc1NC(=O)Cn1ccc2sccc2c1=O` had an RP-LC retention time of 742 s.

`O=C(NCC1CCCCC1)c1ccc(CN2C(=O)C3CCCN3C(=O)c3ccccc32)cc1` (stereo unspecified) had an RP-LC retention time of 824 s.

Turning to `COc1ccc(C(=O)NCc2nnc(SCC(=O)N3CCCc4ccccc43)o2)cc1`, the RP-LC retention time worked out at 677 s.

Turning to `CN1CCc2cc(C(CNS(=O)(=O)c3ccccc3F)N3CCCC3)ccc21` (stereo unspecified), the RP-LC retention time was determined as 573 s.

On to `COc1ccc(-c2cc(=O)n3c4ccccc4n(CC(=O)NC(C)C)c3n2)cc1`, for which the RP-LC retention time was 853 s.

For `CCn1cc(-c2nc(C(=O)N3CCc4ccccc43)cs2)c2cccnc21`, the RP-LC retention time was found to be 1080 s.

`Cc1c(C(=O)N2CCSCC2)cnn1-c1cc(-c2nc(C3CC3)no2)ccn1` registered an RP-LC retention time of 949 s.

`C=Cc1ccc(CN2C(=O)CCC2c2nc(C)no2)cc1` (stereo unspecified): the RP-LC retention time stood at 731 s.

`CCN1CCn2cc(S(=O)(=O)Nc3ccc(F)c(C)c3)cc2C1=O` showed an RP-LC retention time of 742 s.

`CC(C)NC(=O)N1CCCC(c2cccc(C(=O)NCc3ccccc3Cl)c2)C1` (stereo unspecified) showed an RP-LC retention time of 909 s.

`Cc1noc(CNC(=O)C2CCN(C(=O)c3ccc(S(=O)(=O)N(C)C)cc3)CC2)n1`: the RP-LC retention time was 618 s.

Regarding `Cc1ccc(C)c2sc(N(C)CC(=O)NCCn3nc(-c4ccco4)ccc3=O)nc12`, the RP-LC retention time is 784 s.

As to `COc1ccccc1NC(=O)CN1CCC(c2nc(-c3cccs3)no2)CC1`, the RP-LC retention time worked out at 682 s.

The compound `Cc1ccc(-c2csc(NC(=O)CCCc3nc(-c4ccccc4Cl)no3)n2)cc1` had an RP-LC retention time of 1180 s.

As to `CCOc1ccccc1NS(=O)(=O)c1c(C(=O)OC)sc2cccc(F)c12`, the RP-LC retention time was 974 s.

`COCCN1C(=O)c2ccccc2C(C(=O)NCC2COc3ccccc3O2)C1c1ccc(F)cc1` (stereo unspecified) yielded an RP-LC retention time of 954 s.

In turn, `Cc1cccc(S(=O)(=O)N2C[C@H](c3nc(-c4ccncc4)no3)[C@@H](C)C2)c1` returned an RP-LC retention time of 939 s.

Consider `Cc1ccc(Cl)cc1NC(=O)C1CCN(S(=O)(=O)c2cc3c(cc2C)NC(=O)CO3)CC1`, for which the RP-LC retention time stood at 863 s.

As to `Cc1ccc(C)c(CN2CCCN(CC(=O)NC(C)CCc3ccccc3)S2(=O)=O)c1` (stereo unspecified), the RP-LC retention time was 1140 s.

In turn, `O=S(=O)(Cc1ccccc1Cl)N1CCC(CN2CCCCCC2)CC1` registered an RP-LC retention time of 675 s.

`O=c1c2ccccc2ncn1Cc1noc(Cc2ccc(Cl)cc2)n1`: the RP-LC retention time was determined as 872 s.

Turning to `O=C(NCc1ccccc1)C1CCCN(S(=O)(=O)c2c[nH]c(C(=O)N3CCCC3)c2)C1` (stereo unspecified), the RP-LC retention time was 748 s.

On to `COc1ccc(NC(=O)CCC2CCN(c3cc(NC4CC4)ncn3)CC2)c(OC)c1`, for which the RP-LC retention time was found to be 688 s.

Take `COc1cccc(CN2C[C@@H](CO)[C@H](c3ccccn3)C2)c1OC`: the RP-LC retention time stood at 592 s.

`CCOc1ccc(/C=C/c2nn3c(-c4cccnc4)nnc3s2)cc1` displayed an RP-LC retention time of 951 s.

`CCCOc1ccccc1C(=O)N(Cc1ccc(Br)o1)C1CCS(=O)(=O)C1` (stereo unspecified) had an RP-LC retention time of 927 s.

As for `CCCNC(=O)N1CCCN(C)c2ccccc21`, the RP-LC retention time was found to be 613 s.

Compound `Cn1nnc2ccc(-c3noc(-c4ccccc4Br)n3)cc21` displayed an RP-LC retention time of 1030 s.

Take `O=C(Nc1ccccc1)OC1CCCC(NC(=O)C2(c3ccccc3)CCOCC2)C1` (stereo unspecified): the RP-LC retention time was determined as 857 s.

`CCn1c(SC)nnc1-c1nn(C)c2c1CN(C(=O)C1CCCCC1)CC2` had an RP-LC retention time of 815 s.

As for `COc1ccccc1NC(=O)Cn1cccc1-c1nnc(-c2ccccc2)o1`, the RP-LC retention time was determined as 1020 s.

In turn, `Cn1cc(CCN2CCC(C(=O)NCc3ccccc3)CC2)c2cccnc21` returned an RP-LC retention time of 588 s.

For `Cc1c(C(=O)N2CCCCC2)cnn1-c1ccc(-c2nc(C3CC3)no2)cn1`, the RP-LC retention time stood at 1010 s.

For the compound `O=C(Cc1ccc(NC(=O)c2ccncc2)cc1)NC1CC1`, the RP-LC retention time worked out at 547 s.

In turn, `O=C(NC1CCCCCC1)C1c2ccccc2C(=O)N1Cc1cccnc1` (stereo unspecified) returned an RP-LC retention time of 590 s.

For the compound `CCc1ccccc1N1C(=O)CN(S(=O)(=O)CC)CC1(C)C(=O)NCc1ccccc1` (stereo unspecified), the RP-LC retention time turned out to be 860 s.

The compound `Cc1cnc(C(=O)NCC2Cn3cccc3C(=O)N2CC(C)C)cn1` (stereo unspecified) showed an RP-LC retention time of 706 s.

(Values after the METLIN SMRT retention time set (Domingo-Almenara et al. 2019).)
